Here are results for nine molecules from US8324188B2, “Combinations of ET-18-O-CH3and anti-cancer agents for the treatment of cancer” (priority 2006, dated 2012).

In one experiment the test system is HeLa. As to conditions: mean ± SD from three independent experiments, read-out: ED50 values for induction of apoptosis; cited from earlier work.
Another experiment deals with A431. The following applies: mean ± SD from three independent experiments, read-out: ED50 values for induction of apoptosis; cited from earlier work.
The subject of the next experiment is LNCaP cells. Kind of experiment: flow cytometric analysis of annexin V-PE positive / 7-AAD negative LNCaP cells. It is filed as cell-based, human. The following applies: AD + R1881, no CHEM. The procedure: (§1) In a further approach, 10 μM 1-O-octadecyl-2-O-methyl-glycero-3-phosphocholine (final concentration; “CHEM”) and (ionizing) radiation (5 Gray units; “RT”) were administered simultaneously to the LNCaP cells but the subsequent incubation period was extended to 24 hours. Apoptosis was measured using the Apo-ONE™ Homogenous Caspase-3/7 Assay as described above and expressed as relative fluorescence units (RFLU). The percentage of apoptotic cells was determined by flow cytometric analysis of annexin V-PE positive-stained and 7-AAD (7-Amino ActinomycinD) negative-stained cells (both purchased from BD Biosciences, San Jose, Calif., USA) according to established standard protocols. The data represent means±SEM from three independent experiments.
Next, the interaction of 1-O-octadecyl-2-O-methyl-glycero-3-phosphocholine administration (“CHEM”) and androgen deprivation (“AD”) was investigated. LNCaP cells were deprived of androgen for two days by charcoal absorption of serum according to established procedures well known in the art. CHEM was added in a final concentration of 5 μM and 10 μM, respectively.
(§2) Apoptosis was measured using the Apo-ONE™ Homogenous Caspase-3/7 Assay as described above and expressed as relative fluorescence units (RFLU). The percentage of apoptotic cells was determined via annexin V-PE/7-AAD staining as described above. The caspase-317 assay and annexin staining were performed 22 hours after CHEM treatment.
For orientation: Flow cytometry measures light scatter and fluorescence of single cells or particles in a stream.

The test system of experiment [1] is LNCaP androgen-sensitive human prostate adenocarcinoma cells. Kind of experiment: Apo-ONE Homogenous Caspase-3/7 Assay in LNCaP cells. The format is cell-based. As to conditions: AD + R1881, no CHEM. The procedure:
FIG. 1. Depicts the in vitro effects of 1-O-octadecyl-2-O-methyl-glycero-3-phosphocholine (final concentration 10 μM), (ionizing) radiation (absorbed dose of 5 Gray units; indicated as “RT”), and a combination thereof on programmed cell death (apoptosis) and the survival rate of LNCaP androgen-sensitive human prostate adenocarcinoma cells. Apoptosis was determined using the Apo-ONE™ Homogenous Caspase-317 Assay, Promega, Inc., Madison, Wis., USA according to the manufacturers instructions. The percentage of living cancer cells was estimated by means of trypan blue dye exclusion as described (Freshney, R. I. (1994) Culture of Animal Cells: A Manual of Basic Technique. 3rd Ed. Wiley-Liss. New York. USA). The cells were exposed to radiation six hours after (FIG. 1A), concomitantly with (FIG. 1B), or six hours before administration of 1-O-octadecyl-2-O-methyl-glycero-3-phospho-choline (FIG. 1C). The caspase assay was performed 12 hours after exposure to radiation. The respective data shown represent the average of two independent experiments.
First, the in vitro effects of 1-O-octadecyl-2-O-methyl-glycero-3-phosphocholine, (ionizing) radiation, and a combination thereof on programmed cell death (apoptosis) and the survival rate of LNCaP androgen-sensitive human prostate adenocarcinoma cells were measured. The LNCaP cell line was established from a metastatic lesion of the adenocarcinoma. The cells were treated with a final concentration of 10 μM 1-O-octadecyl-2-O-methyl-glycero-3-phosphocholine and (ionizing) radiation corresponding to an absorbed dose of 5 Gray units.
Apoptosis was determined using the Apo-ONE™ Homogenous Caspase-3/7 Assay, Promega, Inc., Madison, VV1, USA according to the manufacturers instructions. The percentage of living tumor cells was estimated by means of trypan blue dye exclusion as described (Freshney, R. I. (1994) Culture of Animal Cells: A Manual of Basic Technique. 3rd Ed. Wiley-Liss. New York. USA)
The cells were exposed to radiation six hours after (FIG. 1A), concomitantly with (FIG. 1B), or six hours before administration of 1-O-octadecyl-2-O-methyl-glycero-3-phospho-choline (FIG. 1C). The caspase assay was performed 12 hours after exposure to radiation. The respective data shown represent the average of two independent experiments.
as §1, §2

Another experiment has as its system U118MG. Kind of experiment: WST-1 proliferation assay, U118MG. It is filed as cell-based, human. As to conditions: Homo sapiens, U-118-MG. The procedure:
(§3) AP-121 was prepared as 5 mM stock solution in distilled sterile water, Temozolomide (TMZ) (Haorui Pharma-Chem, Inc., Edison, N.J.) was prepared as 100 mM in sterile filtrated DMSO; Adriamycin (ADR) (Sigma) was prepared as 1 mM in distilled sterile water; Camptothecin (CTP) (Sigma) was prepared as 10 mM solution in 0.1 N NaOH; Tarceva (Proteinkinase, Germany) was prepared as 5 mM solution in sterile DMSO. All compound stocks were kept at −20° C. 2000 cells were plated in each well of 96-well flat bottom plates, and incubated overnight at 37 °C in 5% CO2. The growth of plated cells was measured by adding […] of WST-1 reagent (Roche Applied Sciences, Germany) to 3 control wells and measuring the absorbance at 650 nm and at 450 nm, respectively, with a SpectraMax250 plate reader. […] After this incubation, VVST-1 reagent was added to the wells and OD650-OD450 values were calculated as before. six wells were assayed for each conditions and standard deviation was determined: all experiments were performed at least three times independently. […] Six different concentrations of each drug were used in combinations index measurements and compared to +/− cells, and compared to controls without compound. Each combination was repeated 6 times at 2 different time points (24 and 96 hours), each of the above experiments was repeated 3 times to obtain valid results.
(In general: Formazan colour is commonly taken as a measure of viable cells.)

For another experiment, the system named is LN-18. Kind of experiment: WST-1 proliferation assay, LN-18. It is filed as cell-based. The following applies: Homo sapiens. On the procedure: (§4) 2000 cells were plated in each well of 96-well flat bottom plates, and incubated overnight at 37 °C in 5% CO2. The growth of plated cells was measured by adding […] of WST-1 reagent (Roche Applied Sciences, Germany) to 3 control wells and measuring the absorbance at 650 nm and at 450 nm, respectively, with a SpectraMax250 plate reader. […] After this incubation, VVST-1 reagent was added to the wells and OD650-OD450 values were calculated as before. six wells were assayed for each conditions and standard deviation was determined: all experiments were performed at least three times independently. […] Six different concentrations of each drug were used in combinations index measurements and compared to +/− cells, and compared to controls without compound.

The subject of a further experiment is T98G. Put plainly: WST-1 proliferation assay, T98G. It is filed as cell-based. As to conditions: Homo sapiens. The procedure:
as §3, with “compound.” for “compound. Each combination was repeated 6 times at 2 different time points (24 and 96 hours), each of the above experiments was repeated 3 times to obtain valid results.”

In the next experiment the test system is U87MG. Put plainly: WST-1 proliferation assay, U87MG. The following applies: Homo sapiens, U-87 MG. It is filed as cell-based, human. On the procedure: as §3, with “compound.” for “compound. Each combination was repeated 6 times at 2 different time points (24 and 96 hours), each of the above experiments was repeated 3 times to obtain valid results.”
In the next experiment the test system is A172. Put plainly: WST-1 proliferation assay, A172. It is filed as cell-based, human. As to conditions: Homo sapiens, A 172. The procedure: as §3, with “compound.” for “compound. Each combination was repeated 6 times at 2 different time points (24 and 96 hours), each of the above experiments was repeated 3 times to obtain valid results.”
For another experiment, the system named is LN-229. Put plainly: WST-1 proliferation assay, LN-229. It is filed as cell-based. The following applies: Homo sapiens. The procedure: 2000 cells were plated in each well of 96-well flat bottom plates, and incubated overnight at 37 °C in 5% CO2. The growth of plated cells was measured by adding […] of WST-1 reagent (Roche Applied Sciences, Germany) to 3 control wells and measuring the absorbance at 650 nm and at 450 nm, respectively, with a SpectraMax250 plate reader. If the OD650-OD450 values were above 0.5, the remainder of the plate was used for incubation with AP-121, other pharmacological agents or solvent control for 96 hours.
(§5) After this incubation, VVST-1 reagent was added to the wells and OD650-OD450 values were calculated as before. six wells were assayed for each conditions and standard deviation was determined: all experiments were performed at least three times independently. After elucidation of individual IC50 values for each compound, the simultaneous combination treatment of AP-121 and the chemotherapeutic agent at their IC50 ratio was performed; combination index (CI) was determined by Calcusyn software package (Biosoft, Ferguson, Mo.). Data were evaluated by calculating the means of the combination index (CI), where a CI of <0.3 indicates a strong synergistic effect, 0.3<CI<0.7 a synergistic effect, 0.7<CI<0.9 moderate synergy, 0.9<CI<1 additive effect and CI>1 antagonistic effect, respectively.
For the AP-121 cell proliferation drug combination measurements, the ED50 was determined for each drug. Six different concentrations of each drug were used in combinations index measurements and compared to +/− cells, and compared to controls without compound. Each combination was repeated 6 times at 2 different time points (24 and 96 hours), each of the above experiments was repeated 3 times to obtain valid results.

The test system of another experiment is NCI-H460 (FAS positive). Kind of experiment: WST-1 proliferation assay, NCI-H460. The format is cell-based, human. As to conditions: NCI-H460; single agent, per experiment line. The procedure: as §4, with “DDP and GMZ” for “Six different concentrations of each drug”, “both purchased from Sigma-aldrich Corp., St. Louis, Mo., USA. The following cell lines were used: A549 (FAS negative), NCI-H460 (FAS positive),” for “used in combinations index measurements”, “HCC827 (FAS positive), all obtained from the ATTC, Rockville, Md., USA.” for “compared to +/− cells, and compared to controls without compound.”

For another experiment, the system named is HCC827 (FAS positive). Kind of experiment: WST-1 proliferation assay, HCC827. It is filed as cell-based, human. As to conditions: single agent, per experiment line. On the procedure:
as §4, with “DDP and GMZ” for “Six different concentrations of each drug”, “both purchased from Sigma-aldrich Corp., St. Louis, Mo., USA. The following cell lines were used: A549 (FAS negative), NCI-H460 (FAS positive),” for “used in combinations index measurements”, “HCC827 (FAS positive), all obtained from the ATTC, Rockville, Md., USA.” for “compared to +/− cells, and compared to controls without compound.”

The subject of experiment [2] is brain tumor cell lines U87MG, A172, LN-18, LN-229, U118MG, and T98G. Kind of experiment: WST-1 proliferation assay, summaries over the brain tumor cell line panel. It is filed as cell-based, human. The following applies: together with AP-121; all three cell lines (U87MG, A172, U118MG). On the procedure:
As a biological test panel, we selected the brain tumor cell lines U87MG, A172, LN-18, LN-229, U118MG, and T98G that have different levels of mutations in p53 and PTEN as well as FAS receptor expression:
2000 cells were plated in each well of 96-well flat bottom plates, and incubated overnight at 37 °C in 5% CO2. The growth of plated cells was measured by adding […] of WST-1 reagent (Roche Applied Sciences, Germany) to 3 control wells and measuring the absorbance at 650 nm and at 450 nm, respectively, with a SpectraMax250 plate reader. […]
as §5, with “respectively. […]” for “respectively.”

Values joined by “and” are separate entries in the source; they are usually repeats but may differ in a detail not shown here. Equal entries are not always repeated.

For `CCCCCCCCCCCCCCCCCCOP(=O)([O-])OC1CC[N+](C)(C)CC1` [Perifosine], the EC50 in the experiment on HeLa is 9.27 ± 1.8 µM; in the experiment on A431, 23.2 ± 2.7 µM.

Take `CCCCCCCCCCCCCCCCOP(=O)([O-])OCC[N+](C)(C)C` [HePC]: the EC50 with HeLa was 8.17 ± 0.4 µM; in the experiment with A431, 17.3 ± 3 µM.

In the case of `C[C@]1(O)CC[C@H]2[C@@H]3CCC4=CC(=O)CCC4=C3C=C[C@@]21C` [R1881, reference compound], in the experiment on LNCaP cells, the “% Annexin V-PE pos. cells” value worked out at 7.0%. Moreover, the “Caspase-3/7 activity (RFLU)” value in experiment [1] is 130 RFLU.

The IC50 is the concentration at which inhibition is half-maximal. Regarding `C#Cc1cccc(Nc2ncnc3cc(OCCOC)c(OCCOC)cc23)c1` [Tarceva], the IC50 with U118MG amounted to 18.8 µM; with LN-18, 20 µM; with T98G it was 14.4 µM; in the experiment on U87MG, 5.9 µM; in the experiment on A172 it was 18.8 µM; with LN-229 it was 3900 nM.

Regarding `COc1cccc2c1C(=O)c1c(O)c3c(c(O)c1C2=O)C[C@@](O)(C(=O)CO)C[C@@H]3O[C@H]1C[C@H](N)[C@H](O)[C@H](C)O1` [ADR, Adriamycin], the IC50 in the experiment with U118MG was 0.12 µM; in the experiment with LN-18 it was 0.09 µM; in the experiment with T98G, 0.17 µM; in the experiment on U87MG it was 0.11 µM; in the experiment with A172, 0.07 µM; with LN-229, 130 nM.

Regarding `[NH2][Pt]([NH2])([Cl])[Cl]` [DDP, cisplatinum, reference compound], the IC50 in the experiment on NCI-H460 (FAS positive) was 1300 nM; in the experiment on HCC827 (FAS positive) it was 3.4 µM and 3.5 µM.

Turning to `Nc1ccn([C@@H]2O[C@H](CO)[C@@H](O)C2(F)F)c(=O)n1` [GMZ, gemicitabin, reference compound], the IC50 in the experiment on NCI-H460 (FAS positive) is 3 nM and 6 nM.

Consider `CC[C@@]1(O)C(=O)OCc2c1cc1n(c2=O)Cc2cc3ccccc3nc2-1` [CPT, Camptothecin], for which the IC50 with U118MG amounted to 0.004 µM; in the experiment with LN-18 it was 0.04 µM; with T98G, 0.02 µM; with U87MG, 0.04 µM; in the experiment with A172 it was 0.02 µM; in the experiment on LN-229, 20 nM.

For `Cn1nnc2c(C(N)=O)ncn2c1=O` [TMZ, Temozolomide], the IC50 in the experiment on U118MG worked out at 382 µM; in the experiment on LN-18 it was 554 µM; in the experiment on T98G, 608 µM; with U87MG, 425 µM; in the experiment on A172 it was 38.3 µM; in the experiment on LN-229, 278000 nM. The effect of combination entry in experiment [2] is “strong synergistic effect (a CI of <0.3 indicates a strong synergistic effect)”.
